In US10538561B2, “Peptide for treating inflammatory diseases” (priority 2015, dated 2020):

Key:
IL-23 = IL-23 secretion in LPS+IFN-γ stimulated THP-1; type: cell-based, Human; conditions: THP-1 + LPS + IFN-γ, 24 h
Experimental: (§1) Cell lines: Human monocytic cell line (THP-1); test item: IS181: treatment regimen; single addition—24 hours; concentration range: 10 μg/ml-5000 μg/ml. A) Identification of non-cytotoxic concentrations: THP-1 cells were treated with IS181 for 24 hours; effect on cell viability was assessed by MTT assay; concentrations leading to >75% cell viability were selected for IL-23 assay. […] Positive control: curcumin. […] Since supernatants corresponding to 5 concentrations were to be tested for […], we also tested 1 mg/ml.

[1] = test system: Human monocytic cell line (THP-1); assay: Cell viability of THP-1 (MTT); type: cell-based
Experimental: as §1

[2] = Cell viability of THP-1 (MTT); type: cell-based, Human; conditions: human, THP-1 monocytic cells, THP-1, 24 h, read-out: Cell viability (wrt Untreated)
Experimental: as §1

[3] = test system: Human Keratinocytes (HaCaT); assay: Cell cycle assay (Sub-G0/G1); type: cell-based; conditions: 48 h
Experimental: Cell lines: Human Keratinocytes (HaCaT); test Item: IS181; treatment regimen: treated twice (once after 24 hours)-48 hours; concentration range: 100 6 g/ml-5000 6 g/ml. […] Cells were treated with IS181 for 24 hours. After 24 h, cells were again treated with IS181 for 24 hours. After 48 h of first treatment, cells were harvested and fixed in ethanol overnight. Cells were washed and stained with Cell cycle reagent and acquired on flow cytometer. […] Positive control: Curcumin.

MAP2K1 (MEK1) = MAP2K1 (MEK1) (Homo sapiens, UniProt Q02750); assay: Biochemical kinase assay MAP2K1
Experimental: Test system: cell free assays; test items: IS181; concentrations tested: 1 ng/ml-5000 μg/ml; Kinases: a) Cell free assays: EGFR (ErbB1); FLT1 (VEGFR1); JAK1; JAK3 MAP2K1 (MEK1); PDGFRA (PDGFR alpha); PRKCA (PKC alpha); b) cell based assay: JAK-STAT.

[4] = test system: Human Keratinocytes (HaCaT); assay: Cell viability (MTT assay) in HaCaT; type: cell-based; conditions: for IC50 value / cytotoxicity: HaCaT
Experimental: (§2) Cell Lines/Cells: Human Keratinocytes (HaCaT); Human melanoma (SK-MEL-28); Human PBMCs. Test Item: IS181 Treatment regimen: Single addition—24 h, ^#Multiple additions (3)−72 h; Concentration range: 1 ng/ml-2 mg/ml (triplicate wells); Sera Condition: […] Method of estimation: MTT assay. […] Positive control: Triton-X-100, Doxorubicin Hydrochloride.

[5] = Cell viability (MTT assay) in HaCaT; type: cell-based, Human; conditions: human, HaCaT keratinocytes, HaCaT, 1% FBS
Experimental: as §2

[6] = test system: Human Keratinocytes (HaCaT); assay: In vitro combination Anthralin and IS 181 (MTT); type: cell-based; conditions: 72 h
Experimental: (§3) Percentage cytotoxicity was determined using MTT assay.

[7] = In vitro combination Anthralin and IS 181 (MTT); type: cell-based, Human; conditions: human, HaCaT keratinocytes, read-out: percent inhibition of cell viability/cytotoxicity
Experimental: as §3

mouse splenocytes = assay: Cell viability of splenocytes (MTT); type: cell-based; conditions: splenocytes
Experimental: (§4) Cell lines: mouse splenocytes; test item: IS181; treatment regimen: single addition—24 hours; concentration range: 10 μg/ml-5000 μg/ml.A) Identification of non-cytotoxic concentrations: splenocytes were treated with IS181 for 24 hours. Effect on cell viability was assessed by MTT assay. Concentrations leading to >75% cell viability were selected for IL-17 assay. B) IL-17 assay: splenocytes were treated with IS181 in presence of ConA stimulation for 24 hours. Supernatants were collected and stored at −20° C. till analysed. Levels of IL-17 were analysed in supernatants by ELISA. Percent inhibition of IL-17 secretion was calculated with reference to ConA treated levels. Positive control: curcumin.

[8] = Cell viability of splenocytes (MTT); type: cell-based, mouse; conditions: mouse, mouse splenocytes, splenocytes, 24 h
Experimental: as §4

Chain of MAP2K1 (MEK1) (Q02750 whole entry): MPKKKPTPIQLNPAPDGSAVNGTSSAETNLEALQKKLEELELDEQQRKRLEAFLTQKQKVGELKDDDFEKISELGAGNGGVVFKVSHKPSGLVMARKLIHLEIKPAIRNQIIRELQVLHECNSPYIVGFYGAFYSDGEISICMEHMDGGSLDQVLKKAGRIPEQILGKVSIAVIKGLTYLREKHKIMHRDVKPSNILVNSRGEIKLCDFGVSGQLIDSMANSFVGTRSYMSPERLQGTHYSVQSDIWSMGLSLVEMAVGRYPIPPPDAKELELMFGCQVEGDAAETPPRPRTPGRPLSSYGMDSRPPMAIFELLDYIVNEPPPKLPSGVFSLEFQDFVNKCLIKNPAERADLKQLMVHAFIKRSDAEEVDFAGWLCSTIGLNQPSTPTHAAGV

Substance: H-WVQRVVEKFLK-OH [IS181, H-Trp-Val-Gln-Arg-Val-Val-Glu-Lys-Phe-Leu-Lys-OH]
- % Inhibition of IL-23 wrt Control (LPS + IFN-γ) (IL-23; 10 μg/ml): 69.8%
- Conc. of IL-23 (IL-23; 10 μg/ml): 25.4 pg/mL
- % Inhibition of IL-23 wrt Control (LPS + IFN-γ) (IL-23; 50 μg/ml): 66.3%
- Conc. of IL-23 (IL-23; 50 μg/ml): 25.3 pg/mL
- % Inhibition of IL-23 wrt Control (LPS + IFN-γ) (IL-23; 100 μg/ml): 72.3%
- Conc. of IL-23 (IL-23; 100 μg/ml): 23.3 pg/mL
- % Inhibition of IL-23 wrt Control (LPS + IFN-γ) (IL-23; 500 μg/ml): −10.9%
- Conc. of IL-23 (IL-23; 500 μg/ml): 93.3 pg/mL
- % Inhibition of IL-23 wrt Control (LPS + IFN-γ) (IL-23; 1000 μg/ml): 39.6%
- Conc. of IL-23 (IL-23; 1000 μg/ml): 50.6 pg/mL
- cytotoxicity ([1]; THP-1, 10 μg/ml-500 μg/ml): 25%
- cytotoxicity ([1]; THP-1, 1 mg/ml): 38.7%
- cytotoxicity ([1]; THP-1, 5 mg/ml): 85%
- viability at 24 h, 10 μg/ml ([2]; 10 μg/ml): 81.2%
- viability at 24 h, 50 μg/ml ([2]; 50 μg/ml): 84.2%
- viability at 24 h, 100 μg/ml ([2]; 100 μg/ml): 90.4%
- viability at 24 h, 500 μg/ml ([2]; 500 μg/ml): 88.5%
- viability at 24 h, 1 mg/ml ([2]; 1 mg/ml): 61.3%
- viability at 24 h, 5 mg/ml ([2]; 5 mg/ml): 15%
- increase in pro-apoptotic cells (Sub-G0/G1 population) vs untreated ([3]; 100 μg/ml): 9.1 fold
- increase in pro-apoptotic cells (Sub-G0/G1 population) vs untreated ([3]; 500 μg/ml): 7.1 fold
- increase in pro-apoptotic cells (Sub-G0/G1 population) vs untreated ([3]; 1000 μg/ml): 2.3 fold
- increase in pro-apoptotic cells (Sub-G0/G1 population) vs untreated ([3]; 5000 μg/ml): 29.7 fold
- inhibition of MAP2K1 (MEK1) (MAP2K1 (MEK1); 10 μg/ml-5000 μg/ml): 23%-49%
- inhibition at 50 µg/mL (MAP2K1 (MEK1); cell free, 50 μg/ml): 49%
- inhibition at 100 µg/mL (MAP2K1 (MEK1); cell free, 100 μg/ml): 26%
- inhibition at 250 µg/mL (MAP2K1 (MEK1); cell free, 250 μg/ml): 30%
- inhibition at 500 µg/mL (MAP2K1 (MEK1); cell free, 500 μg/ml): 23%
- inhibition at 1000 µg/mL (MAP2K1 (MEK1); cell free, 1000 μg/ml): 13%
- inhibition at 2000 µg/mL (MAP2K1 (MEK1); cell free, 2000 μg/ml): -16%
- inhibition at 5000 µg/mL (MAP2K1 (MEK1); cell free, 5000 μg/ml): -81%
- IC50 ([4]; 24 h): 470 µM
- Selectivity Index -IC50 (PBMC)/IC50 (HaCaT/SK-MEL-28 cells) ([4]; 24 h): 3
- selectivity of cytotoxic activity against human keratinocytes ([4]; 24 h): selective cytotoxic activity
- IC50 ([4]; 72 h): 290 µM
- Selectivity Index -IC50 (PBMC)/IC50 (HaCaT/SK-MEL-28 cells) ([4]; 72 h): 2
- IC50 value ([4]; 24 h): 670 µg/mL
- cytotoxicity ([4]; 24 h, at concentrations 2 mg/ml): 87%-91%
- IC50 value ([4]; 72 h): 420 µg/mL
- cytotoxicity ([4]; 72 h, concentrations ≥0.5 mg/ml): 58%-90%
- cytotoxicity at 24 h, 0.1 μg/ml ([5]; 24 h, 0.1 μg/ml): -1.4%
- cytotoxicity at 24 h, 0.5 μg/ml ([5]; 24 h, 0.5 μg/ml): -4.61%
- cytotoxicity at 24 h, 1 μg/ml ([5]; 24 h, 1 μg/ml): 4.88%
- cytotoxicity at 24 h, 5 μg/ml ([5]; 24 h, 5 μg/ml): 8.43%
- cytotoxicity at 24 h, 10 μg/ml ([5]; 24 h, 10 μg/ml): 5.75%
- cytotoxicity at 24 h, 50 μg/ml ([5]; 24 h, 50 μg/ml): 1.79%
- cytotoxicity at 24 h, 100 μg/ml ([5]; 24 h, 100 μg/ml): -0.58%
- cytotoxicity at 24 h, 500 μg/ml ([5]; 24 h, 500 μg/ml): 18.9%
- cytotoxicity at 24 h, 1000 μg/ml ([5]; 24 h, 1000 μg/ml): 87.8%
- cytotoxicity at 24 h, 2000 μg/ml ([5]; 24 h, 2000 μg/ml): 91.3%
- cytotoxicity at 72 h, 0.1 μg/ml ([5]; 72 h, 0.1 μg/ml): -56.2%
- cytotoxicity at 72 h, 0.5 μg/ml ([5]; 72 h, 0.5 μg/ml): -75.4%
- cytotoxicity at 72 h, 1 μg/ml ([5]; 72 h, 1 μg/ml): -66.1%
- cytotoxicity at 72 h, 5 μg/ml ([5]; 72 h, 5 μg/ml): -37.5%
- cytotoxicity at 72 h, 10 μg/ml ([5]; 72 h, 10 μg/ml): -44.5%
- cytotoxicity at 72 h, 50 μg/ml ([5]; 72 h, 50 μg/ml): -33%
- cytotoxicity at 72 h, 100 μg/ml ([5]; 72 h, 100 μg/ml): -42.5%
- cytotoxicity at 72 h, 500 μg/ml ([5]; 72 h, 500 μg/ml): 58.5%
- cytotoxicity at 72 h, 1000 μg/ml ([5]; 72 h, 1000 μg/ml): 91%
- cytotoxicity at 72 h, 2000 μg/ml ([5]; 72 h, 2000 μg/ml): 89.4%
- IC50 value of IS 181 ([6]; Anthralin 0 μM): 695.50 µg/mL
- IC50 value of IS 181 ([6]; with Anthralin 0.01 μM): 872.80 µg/mL
- IC50 value of IS 181 ([6]; with Anthralin 0.05 μM): 908.50 µg/mL
- IC50 value of IS 181 ([6]; with Anthralin 0.1 μM): 677.60 µg/mL
- cytotoxicity at 72 h, 10 μg/ml ([7]; IS 181 10 μg/ml alone): -10.4%
- cytotoxicity at 72 h, 50 μg/ml ([7]; IS 181 50 μg/ml alone): -4.81%
- cytotoxicity at 72 h, 100 μg/ml ([7]; IS 181 100 μg/ml alone): 8.16%
- cytotoxicity at 72 h, 500 μg/ml ([7]; IS 181 500 μg/ml alone): 39.4%
- cytotoxicity at 72 h, 1000 μg/ml ([7]; IS 181 1000 μg/ml alone): 62.4%
- cytotoxicity at 72 h, 2000 μg/ml ([7]; IS 181 2000 μg/ml alone): 81.4%
- cytotoxicity at 72 h, 5000 μg/ml ([7]; IS 181 5000 μg/ml alone): 94.2%
- cytotoxicity (mouse splenocytes): < 25%
- cytotoxicity (mouse splenocytes; 2 mg/ml): 48.4%
- cytotoxicity (mouse splenocytes; 5 mg/ml): 74.4%
- viability at 24 h, 10 μg/ml ([8]; 10 μg/ml): 97%
- viability at 24 h, 50 μg/ml ([8]; 50 μg/ml): 110%
- viability at 24 h, 100 μg/ml ([8]; 100 μg/ml): 110%
- viability at 24 h, 500 μg/ml ([8]; 500 μg/ml): 94.6%
- viability at 24 h, 1 mg/ml ([8]; 1 mg/ml): 79.4%
- viability at 24 h, 2 mg/ml ([8]; 2 mg/ml): 51.6%
- viability at 24 h, 5 mg/ml ([8]; 5 mg/ml): 25.6%
